# Entries after “also recorded” stand apart in the source; their conditions may differ.
# Key:
# [1] = tested on: human pulmonary microvascular endothelial cells (hPMVEC); test: Immunofluorescence staining (VE-cadherin, actin) of human pulmonary microvascular endothelial cells; assay type: cell-based; settings: VT 300 ng/ml
# Procedure: Human pulmonary microvascular endothelial cells (hPMVEC; PromoCell, Heidelberg, Germany), used at passages 4–6, were grown to confluence on glass slides, incubated with VT (300 ng/ml) or sterile PBS as a control for 90 minutes and then stimulated with LPS (0.1 μg/ml) from Escherichia coli (Sigma-Aldrich, Steinheim, Germany), PLY (0.25, 0.5, 0.75 μg/ml), or PBS. After 30 minutes, cells were fixed in 3% formalin, and the […] vascular endothelial (VE)-cadherin (1:400, goat antihuman VE-cadherin; Santa Cruz Biotechnology, Santa Cruz, CA, USA; secondary antibody 1:8000, Alexa Fluor 488 F(ab′)2 rabbit antigoat IgG (H + L), Invitrogen, Darmstadt, Germany) and actin fibers (1:2000; phalloidin Alexa 546-labeled; Invitrogen) were stained to evaluate cell morphology. 4′,6-diamidino-2-phenylindole staining (Sigma-Aldrich) was used to visualize cell nuclei. The immunofluorescence of the cells was analyzed by confocal microscopy using an LSM 780 microscope with ZEN 2011 software (objective: Plan Apochromat × 63/1.40 oil; Carl Zeiss Microscopy, Jena, Germany).
# [2] = tested on: Streptococcus pneumoniae-infected mice; test: Lung histology (edema formation, lung injury) in Streptococcus pneumoniae-infected mice; assay type: in vivo, mouse (C57BL/6 N)
# Procedure: Identical experiments were performed separately for histological analyses of the lungs. Mice were anesthetized 24 h or 48 h p.i. […] After ligation of the trachea, mouse lungs were removed and immediately immersion-fixed in 4% buffered formalin, embedded in paraffin, cut into 2-μm-thick sections, and stained with hematoxylin and eosin as described elsewhere. The degree of edema formation was assessed semiquantitatively (0 = no edema, 1 = minimal edema, 2 = mild edema, 3 = moderate edema, 4 = severe edema). Three evenly distributed sections per lung were microscopically evaluated to assess edema formation.
# [3] = tested on: Streptococcus pneumoniae; test: Bacterial growth in vitro (optical density); assay type: cell-based, Streptococcus pneumoniae serotype 3 (NCTC7978); settings: VT 5 µg/ml, log-phase culture, THY media, 37°C, 5% CO2; OD every 30 min for 5 hours; preliminary experiment
# Procedure: experiment, we investigated if Vasculotide (VT) has a direct effect on the bacterial growth of Streptococcus pneumoniae. Capsulated S. pneumoniae (S. pn.) serotype 3 (NCTC7978) was cultured on Columbia blood agar + 5% sheep blood for 8 h. Single colonies were transferred into THY media to yield OD600 = 0.03-0.04. Liquid cultures were incubated at 37°C and 5% CO2 for 2.5-4 h until the bacteria reached a phase of logarithmic growth (OD600 = 0.3-0.4).
# 30 min later, log-phase bacterial cultures were treated with VT (5 µg/ml) or PBS. Optical density was measured every 30 min for further 5 hours. Individual time-proliferation curves
# [4] = tested on: murine endotoxemia; settings: cited from earlier work
# [5] = tested on: abdominal sepsis; set-up: method as in 3 sources, ref 26 = [26]; PMID 22040774; doi:10.1186/cc10523; 26. Kümpers P Gueler F David S Slyke PV Dumont DJ Park JK Bockmeyer CL Parikh SM Pavenstadt H Haller H The synthetic Tie2 agonist peptide Vasculotide protects against vascular leakage and reduces mort ||| ref 25, 26 = [25]; PMID 21421750; doi:10.1152/ajplung.00459.2010; 25. David S Ghosh CC Kumpers P Shushakova N Van Slyke P Khankin EV Karumanchi SA Dumont D Parikh SM Effects of a synthetic PEG-ylated Tie-2 agonist peptide on endotoxemic lung injury and mortality Am || [26]; PMID 22040774; doi:10.1186/cc10523; 26. Kümpers P Gueler F David S Slyke PV Dumont DJ Park JK Bockmeyer CL Parikh SM Pavenstadt H Haller H The synthetic Tie2 agonist peptide Vasculotide protects against vascular leakage and reduces mort ||| ref 26 (Kümpers et al.); settings: cited from earlier work
# [6] = tested on: acute kidney injury; set-up: method as in PMID 26911791; settings: cited from earlier work
# [7] = tested on: acute skin ionizing radiation in mice; settings: cited from earlier work
# [8] = tested on: Tie2; set-up: method as in PMID 18939935, PMID 21421750, PMID 22040774, PMID 26046800, PMID 25159192; settings: other cell types/tissues; cited from earlier work
# [9] = tested on: Streptococcus pneumoniae-infected mice; test: Blood leukocytes in Streptococcus pneumoniae-infected mice; settings: VT 500 ng i.v.; 24 h and 48 h p.i.; n = 8
# Procedure: (§1) For all experiments, female C57BL/6 N mice (8 to 10 weeks old, weighing 18 to 20 g; Charles River Laboratories, Sulzfeld, Germany) were used. Animals were housed under specific pathogen-free conditions under a 12–h/12-h light/dark cycle with free access to food and water.
# Mice were anesthetized with ketamine (80 mg/kg) and xylazine (25 mg/kg) and transnasally inoculated with 5 × 10^6 colony-forming units (CFU) of S. pneumoniae (NCTC7978) in 20 μl of sterile PBS as described before [35]. Sham-infected control mice received 20 μl of sterile PBS. After 22 h, 34 h, and 46 h, body weight and rectal temperature were measured, and different dosages of VT (100, 200, or 500 ng in 100 μl of PBS) or PBS were intravenously injected into the tail vein. Twenty-four or forty-eight hours postinfection (p.i.), mice were anesthetized (160 mg/kg ketamine and 75 mg/kg xylazine) and exsanguinated. […] Subsequently, lungs were flushed, and BAL was performed. […] Blood leukocytes were quantified using a scil Vet ABC Hematology Analyzer (scil animal care company GmbH, Viernheim, Germany).
# [10] = tested on: murine lung endothelial cells (mLEC); test: Transcellular electrical resistance (ECIS) of murine lung endothelial cells; settings: VT 2, 10, 50 ng/ml, 30 minutes pretreatment; PLY 0.75 μg/ml, 3 h; n = 4-7
# Procedure: Briefly, mice were killed by an overdose of ketamine/xylazine. Lungs of four mice were pooled, minced, and digested by dispase (20 ml, 5 U/ml; BD Biosciences, Heidelberg, Germany) and DNase (20 ml, 0.5 mg/ml; AppliChem GmbH, Darmstadt, Germany). The homogenate was filtered, collected by centrifugation (300 × g), and washed twice, and the resulting cell suspension was incubated with antimouse VE-cadherin antibody (rat antimouse CD 144; BD Pharmingen, San Diego, CA, USA)-coated magnetic beads (sheep antirat IgG DynaBeads; Invitrogen GmbH, Karlsruhe, Germany) for positive isolation with the DynaMag-Spin magnet system (Invitrogen). The isolated cells were resuspended in Endothelial Cell Growth Medium MV2 (PromoCell), seeded onto fibronectin-coated (Sigma-Aldrich) culture dishes (diameter 35 mm), and grown to a confluent monolayer in 3–4 days. Then, cells were split after trypsinization [37], seeded and grown to confluence on fibronectin-coated evaporated gold microelectrodes (eight-well array with ten electrodes per well; ibidi GmbH, Martinsried, Germany) connected to an electric cell-substrate impedance sensing (ECIS) system (Applied Biophysics, Troy, NY, USA) [38] for continuous monitoring of transcellular electrical resistance (TER). Cells were pretreated with VT (2, 10, and 50 ng/ml) or PBS for 30 minutes and then stimulated with PLY (0.75 μg/ml) or PBS for 3 h.
# [11] = tested on: Streptococcus pneumoniae-infected mice; test: BALF leukocyte recruitment (FACS) in Streptococcus pneumoniae-infected mice; settings: VT 500 ng i.v., 24 h and 48 h p.i., n = 8
# Procedure: as §1
# (§2) Mice were anesthetized with ketamine (80 mg/kg) and xylazine (25 mg/kg) and transnasally inoculated with 5 × 10^6 colony-forming units (CFU) of S. pneumoniae (NCTC7978) in 20 μl of sterile PBS as described before [35]. Sham-infected control mice received 20 μl of sterile PBS. After 22 h, 34 h, and 46 h, body weight and rectal temperature were measured, and different dosages of VT (100, 200, or 500 ng in 100 μl of PBS) or PBS were intravenously injected into the tail vein. Twenty-four or forty-eight hours postinfection (p.i.), mice were anesthetized (160 mg/kg ketamine and 75 mg/kg xylazine) and exsanguinated. […] Subsequently, lungs were flushed, and BAL was performed. To determine permeability, HSA (1 mg/75 μl) was intravenously infused 1 h before lung preparation, and the BALF/plasma ratio was calculated as described elsewhere [35]. […] Cytokines from BALF were measured with a multiplex assay (ProcartaPlex; eBioscience), and plasma levels of interleukin (IL)-6 (BD Biosciences) and KC (keratinocyte chemoattractant; R&D Systems) were quantified by ELISA.
# [12] = tested on: S. pneumoniae; test: Bacterial burden in BALF and blood of Streptococcus pneumoniae-infected mice; settings: VT 500 ng i.v., 24 h and 48 h p.i., n = 8
# Procedure: Mice were anesthetized with ketamine (80 mg/kg) and xylazine (25 mg/kg) and transnasally inoculated with 5 × 10^6 colony-forming units (CFU) of S. pneumoniae (NCTC7978) in 20 μl of sterile PBS as described before [35]. Sham-infected control mice received 20 μl of sterile PBS. After 22 h, 34 h, and 46 h, body weight and rectal temperature were measured, and different dosages of VT (100, 200, or 500 ng in 100 μl of PBS) or PBS were intravenously injected into the tail vein. Twenty-four or forty-eight hours postinfection (p.i.), mice were anesthetized (160 mg/kg ketamine and 75 mg/kg xylazine) and exsanguinated. […] Subsequently, lungs were flushed, and BAL was performed.
# S. pneumoniae (S. pn.) infected mice (5x106
# CFU/mouse) were intravenously (i.v.) treated with Vasculotide (VT; 500 ng) or PBS 22 h, 34
# h and 46 h post infection (p.i.). The bacterial burden was quantified in bronchoalveolar lavage
# fluid (BALF) and in blood 24 h or 48 h p.i.
# [13] = tested on: Streptococcus pneumoniae-infected mice; test: Plasma levels of IL-6 and KC (ELISA) in Streptococcus pneumoniae-infected mice; settings: VT 500 ng i.v., n = 8
# Procedure: as §1, §2
# [14] = tested on: Streptococcus pneumoniae-infected mice; test: Lung permeability (HSA BALF/plasma ratio) in Streptococcus pneumoniae-infected mice
# Procedure: as §1, §2
substance,measurement,setting,value
Vasculotide [VT],"monolayer stabilization (gap formation, stress fibers, cell loss) after LPS or PLY","[1]; 90 minutes pretreatment, LPS 0.1 μg/ml or PLY 0.25, 0.5, 0.75 μg/ml for 30 minutes, three independent experiments","stabilized cell monolayers, protected from gap formation, and reduced stress fibers as well as cell loss; also recorded: stabilized the cell monolayer, avoided gap formation, and reduced stress fibers and cell loss from culture dishes"
same,effect on unstimulated hPMVEC monolayer,"[1]; 90 minutes, no LPS or PLY",no effect of VT pretreatment was observed; also recorded: intact monolayers with tight intercellular contacts and thin actin fibers
same,lung injury (histology),"[2]; VT 500 ng i.v., 24 h and 48 h p.i., n = 3-4, vs PBS",reduced lung injury
same,"perivascular edema formation, 24 h p.i.","[2]; VT 500 ng i.v., 24 h p.i., n = 3-4, vs PBS",considerably reduced
same,"neutrophil infiltration of perivascular spaces, 48 h p.i.","[2]; VT 500 ng i.v., 48 h p.i., n = 3-4",without differences between the VT-treated and untreated infected groups
same,"alveolar edema formation, 48 h p.i.","[2]; VT 500 ng i.v., 48 h p.i., n = 3-4, vs PBS",diminished; also recorded: almost completely abolished (three of four mice); also recorded: nearly devoid of the additional massive alveolar edema formation
same,"perivascular edema, 48 h p.i.","[2]; VT 500 ng i.v., 48 h p.i., n = 3-4, vs untreated (PBS)",less perivascular edema than the untreated group
same,"edema or other pathological changes in perivascular spaces, sham-infected","[2]; sham-infected groups, VT 500 ng i.v. or PBS, 24 h and 48 h p.i.",no edema formation or other pathological changes
same,direct antimicrobial activity / bacterial growth,[3],did not affect bacterial growth in vitro; also recorded: failed to show a direct antimicrobial activity
same,endotoxemia-induced lung vascular leakage,[4],prevent endotoxemia-induced lung vascular leakage
same,protective effect in murine endotoxemia,[4]; endotoxemia,protective effect
same,protective effect in murine endotoxemia and abdominal sepsis (sepsis part),[5]; abdominal sepsis,protective effect
same,barrier disruption in experimental sepsis,[5],diminish barrier disruption
same,local and systemic inflammatory markers after abdominal sepsis,"[5]; treatment started 2 h after cecal ligation and puncture, ref 26 (Kümpers et al.)",reductions in local and systemic inflammatory markers
same,barrier disruption in acute kidney injury,[6],protective effect; also recorded: diminish barrier disruption
same,acute skin ionizing radiation,[7],protective effect
same,Tie2 phosphorylation,[8],confirms findings of other studies
same,blood leukocytes,[9],unaffected; also recorded: did not differ
same,PLY-induced TER decrease,[10],attenuated the PLY-induced TER decrease in a dose-dependent manner
same,pulmonary leukocyte recruitment (BALF),[11],did not significantly reduce; also recorded: not significantly affected; also recorded: not significantly reduced
same,bacterial burden in BALF,[12]; BALF,did not affect; also recorded: not significantly reduced
same,bacterial burden in blood,[12]; blood,did not affect; also recorded: not significantly reduced
same,"IL-6 and KC plasma levels, trend",[13]; 24 h and 48 h p.i.,slightly decreased by trend
same,"IL-6 plasma level, 24 h p.i.",[13]; 24 h p.i.,significantly reduced
same,"IL-6 plasma level, 48 h p.i.",[13]; 48 h p.i.,did not differ
same,"lung permeability (HSA BALF/plasma ratio), 48 h p.i., second set","[14]; VT 500 ng i.v. at 22, 34, 46 h p.i., Fig. 4b, n = 8, vs PBS",decreased pulmonary barrier disruption; also recorded: Lung permeability was decreased
same,"lung hyperpermeability (HSA BALF/plasma ratio), 48 h p.i.","[14]; VT 500 ng i.v. at 22, 34, 46 h p.i., dose-finding experiment (Fig. 3b), n = 5-7, vs PBS",significant permeability reduction; also recorded: significantly reduced lung hyperpermeability
same,"lung permeability (HSA BALF/plasma ratio), 24 h p.i., second set","[14]; VT 500 ng i.v. at 22 h p.i., Fig. 4a, n = 8, vs PBS",decreased pulmonary barrier disruption; also recorded: Lung permeability was decreased
same,"lung hyperpermeability (HSA BALF/plasma ratio), 24 h p.i.","[14]; VT 500 ng i.v. at 22 h p.i., dose-finding experiment (Fig. 3a), n = 5-7, vs PBS",significant permeability reduction; also recorded: significantly reduced lung hyperpermeability
same,"lung hyperpermeability, dose dependence","[14]; VT 100, 200, 500 ng i.v. from 22 h p.i., 24 h and 48 h p.i.",reduced lung hyperpermeability in a dose-dependent fashion; also recorded: quickly and effectively reduce pulmonary hyperpermeability in a dose-dependent manner
